Laboratory results as given in patent US10294202B2, “Pyrrolidinones as herbicides” (FMC Corporation, priority 2013, dated 2019).

Key:
[1] = tested on: ryegrass, Italian; assay: Test A pre-/postemergence herbicide test; assay type: in vivo, Lolium multiflorum
Outline: (§1)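 Seeds sown in loam soil/sand blend received a preemergence directed soil spray of test chemical in non-phytotoxic solvent with surfactant; postemergence plants (2–10 cm, one- to two-leaf stage) were sprayed with the same formulation. After about 10 days in greenhouse, injury was rated visually versus untreated controls, 0 (no effect) to 100 (complete control).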

[2] = tested on: kochia; assay: Test A pre-/postemergence herbicide test; assay type: in vivo, Kochia scoparia
Outline: as §1

[3] = tested on: ragweed; assay: Test A pre-/postemergence herbicide test; assay type: in vivo, Ambrosia elatior
Outline: as §1

[4] = tested on: lambsquarters; assay: Test C pre-/postemergence herbicide test; assay type: in vivo, Chenopodium album
Description: (§2) Seeds of plant species selected from blackgrass (Alopecurus myosuroides), ryegrass, Italian (Italian ryegrass, Lolium multiflorum), wheat (winter wheat, Triticum aestivum), galium (catchweed bedstraw, Galium aparine), corn (Zea mays), crabgrass, large (large crabgrass, Digitaria sanguinalis), foxtail, giant (giant foxtail, Setaria faberii), johnsongrass (Sorghum halepense), lambsquarters (Chenopodium album), morningglory (Ipomoea coccinea), nutsedge, yellow (yellow nutsedge, Cyperus esculentus), pigweed (Amaranthus retroflexus), ragweed (common ragweed, Ambrosia elatior), soybean (Glycine max), barnyardgrass (Echinochloa crus-galli), oilseed rape (Brassica napus), waterhemp (common waterhemp, Amaranthus rudis), kochia (Kochia scoparia), oat, wild (wild oat, Avena fatua), surinam grass (Brachiaria decumbens), foxtail, green (green foxtail, Setaria viridis), goosegrass (Eleusine indica), bromegrass, downy (downy bromegrass, Bromus tectorum), nightshade (eastern black nightshade, Solanum ptycanthum), cocklebur (common cocklebur, Xanthium strumarium), cupgrass, woolly (woolly cupgrass, Eriochloa villosa), bermudagrass (Cynodon dactylon), sunflower, (common oilseed sunflower, Helianthus annuus), Russian thistle (Salsola kali) and velvetleaf (Abutilon theophrasti) were planted into a blend of loam soil and sand and treated preemergence with test chemicals formulated in a non-phytotoxic solvent mixture which included a surfactant. At the same time, plants selected from these crop and weed species and also barley (winter barley, Hordeum vulgare), […]), chickweed (common chickweed, Stellaria media), deadnettle (henbit deadnettle, Lamium amplexicaule), and canarygrass (littleseed canarygrass, Phalaris minor) were planted in pots containing Redi-Earth® planting medium (Scotts Company, 14111 Scottslawn Road, Marysville, Ohio 43041) comprising spaghnum peat moss, vermiculite, wetting agent and starter nutrients and treated with postemergence applications of test chemicals formulated in the same manner. Plants ranged in height from 2 to 18 cm (1- to 4-leaf stage) for postemergence treatments. Treated plants and controls were maintained in a greenhouse for 13 to 15 days, after which time all species were compared to controls and visually evaluated. Plant response ratings, summarized in Table C, are based on a scale of 0 to 100 where 0 is no effect and 100 is complete control. A dash (-) response means no test result.

[5] = tested on: barnyardgrass; assay: Test C pre-/postemergence herbicide test; assay type: in vivo, Echinochloa crus-galli
Description: as §2

[6] = Postemergence, 125 g ai/ha, visual rating on 0 to 100 scale (0 no effect, 100 complete control), approx. 10 days
[7] = Postemergence, 1000 g ai/ha, 0 to 100 scale (0 no effect, 100 complete control)
[8] = preemergence, 1000 g ai/ha, 0 to 100 scale
[9] = Preemergence, 62 g ai/ha, scale 0 to 100 (0 no effect, 100 complete control)
[10] = Preemergence, 31 g ai/ha, scale 0 to 100, 0 is no effect and 100 is complete control
[11] = Preemergence, 125 g ai/ha, scale 0 to 100 (0 no effect, 100 complete control)
[12] = Postemergence, 500 g ai/ha, 0 to 100 scale (0 no effect, 100 complete control)
[13] = Preemergence, 125 g ai/ha, 0 to 100 scale where 0 is no effect and 100 is complete control
[14] = Preemergence, 500 g ai/ha, visual rating on 0 to 100 scale (0 no effect, 100 complete control)
[15] = Postemergence, 31 g ai/ha, scale 0 to 100 (0 no effect, 100 complete control)
[16] = Postemergence, 62 g ai/ha, scale 0 (no effect) to 100 (complete control)
[17] = Postemergence, 125 g ai/ha, scale 0 to 100 (0 no effect, 100 complete control)
[18] = Postemergence, 250 g ai/ha, scale 0 to 100 (0 no effect, 100 complete control)
[19] = Postemergence, 16 g ai/ha, scale 0 to 100 (0 no effect, 100 complete control)
[20] = Preemergence, 16 g ai/ha, scale 0 to 100
[21] = Preemergence, 125 g ai/ha, scale 0 to 100

Structure (SMILES) | Plant response rating, Ryegrass, Italian [1, 6] | Plant response rating, Ragweed [3, 6] | Lambsquarters plant response rating [4, 9] | Plant response rating (scale of 0 to 100), Lambsquarters ([4]; Preemergence, 250 g ai/ha) | Barnyardgrass plant response rating [5, 10] | Barnyardgrass plant response rating [5, 9] | Plant response rating, Barnyardgrass [5, 11] | Plant response rating (scale of 0 to 100; 0 is no effect, 100 is complete control), Barnyardgrass ([5]; Preemergence, 250 g ai/ha) | Plant response rating, Ryegrass, Italian [1, 12] | Plant response rating, Ryegrass, Italian [1, 13] | Ryegrass, Italian plant response rating [1, 14] | Plant response rating, Kochia [2, 6] | Plant response rating, Kochia [2, 12] | Plant response rating, Kochia [2, 13] | Kochia plant response rating [2, 14] | Plant response rating, Ragweed [3, 12] | Plant response rating, Ragweed [3, 13] | Plant response rating, Lambsquarters [4, 15] | Plant response rating, Lambsquarters [4, 16] | Lambsquarters plant response rating [4, 10] | also measured
O=C(Nc1ccccc1F)C1C(=S)NCC1c1cccc(C(F)(F)F)c1 (centres unmarked) [Compound 274] | 0 | 0 | 0 | 0 | 55 | 65 | 85 | 90 | – | – | – | – | – | – | – | – | – | – | – | – | Plant response rating, Ryegrass, Italian [1, 7]: 20; Plant response rating, Ryegrass, Italian [1, 8]: 40; Plant response rating, Kochia [2, 7]: 40; Plant response rating, Kochia [2, 8]: 40; Plant response rating, Ragweed [3, 7]: 30; Plant response rating, Ragweed [3, 8]: 20
CN1CC(c2ccc(F)c(F)c2)C(C(=O)Nc2ccccc2F)C1=O (centres unmarked) [Compound 302] | 0 | 0 | 0 | 65 | 90 | 85 | 100 | 100 | 60 | 0 | 60 | 10 | 60 | 50 | 70 | 0 | 0 | 10 | 20 | 0 | Ragweed plant response rating [3, 14]: 30; Plant response rating, Lambsquarters [4, 17]: 60; Plant response rating, Lambsquarters [4, 18]: 70; Plant response rating, Lambsquarters [4, 11]: 60; Plant response rating, Barnyardgrass [5, 15]: 0; Plant response rating, Barnyardgrass [5, 16]: 20; Plant response rating, Barnyardgrass [5, 17]: 40; Plant response rating, Barnyardgrass [5, 18]: 90
CN1CC(c2ccc(C(F)(F)F)cc2)C(C(=O)Nc2ccccc2F)C1=O (centres unmarked) [Compound 304] | 50 | 0 | 70 | – | 85 | 90 | 95 | – | 50 | 0 | 0 | 10 | 80 | – | 70 | 20 | 0 | 35 | 75 | 65 | Plant response rating, Lambsquarters [4, 19]: 65; Plant response rating, Lambsquarters [4, 17]: 70; Plant response rating, Lambsquarters [4, 11]: 80; Plant response rating, Lambsquarters [4, 20]: 30; Plant response rating, Barnyardgrass [5, 19]: 0; Plant response rating, Barnyardgrass [5, 15]: 0; Plant response rating, Barnyardgrass [5, 16]: 0; Plant response rating, Barnyardgrass [5, 17]: 40; Plant response rating, Barnyardgrass [5, 20]: 85
O=C1NCC(c2cccc(Br)c2)C1C(=O)Nc1ccccc1F (centres unmarked) [Compound 307] | 0 | 0 | 0 | 85 | 40 | 70 | 85 | 95 | 0 | 0 | 0 | 0 | 0 | 0 | 0 | 0 | 0 | – | – | 0 | Ragweed plant response rating [3, 14]: 0; Plant response rating, Lambsquarters [4, 21]: 10
O=C1NCC(c2cccc(Br)c2)C1C(=O)Nc1cccc(F)c1F (centres unmarked) [Compound 309] | 10 | 0 | 0 | 50 | 60 | 90 | 90 | 95 | 30 | 0 | 20 | 0 | 0 | 0 | 0 | 0 | 0 | 10 | 65 | 0 | Plant response rating, Lambsquarters [4, 17]: 65; Plant response rating, Lambsquarters [4, 18]: 70; Plant response rating, Lambsquarters [4, 21]: 30; Plant response rating, Barnyardgrass [5, 15]: 0; Plant response rating, Barnyardgrass [5, 16]: 15; Plant response rating, Barnyardgrass [5, 17]: 55; Plant response rating, Barnyardgrass [5, 18]: 60
O=C1NCC(c2cccc(C(F)(F)F)c2)C1C(=O)Nc1ccc(F)c(F)c1F (centres unmarked) [Compound 315] | 20 | 20 | 40 | 80 | 90 | 90 | 90 | 95 | 50 | 40 | 70 | 50 | 70 | 40 | 60 | 40 | 20 | 60 | 60 | 40 | Ragweed plant response rating [3, 14]: 30; Plant response rating, Lambsquarters [4, 17]: 65; Plant response rating, Lambsquarters [4, 18]: 80; Plant response rating, Lambsquarters [4, 21]: 70; Plant response rating, Barnyardgrass [5, 15]: 25; Plant response rating, Barnyardgrass [5, 16]: 65; Plant response rating, Barnyardgrass [5, 17]: 70; Plant response rating, Barnyardgrass [5, 18]: 85
